System: patients with cGVHD
Assay: Example 1: pulmonary function (percent predicted FEV1, FVC, DLco, TLC, RV) change from baseline
Assay type: in vivo, human
Protocol: Change From Baseline in Percent Predicted Forced Expiratory Volume in 1 Second (FEV1) at Each Specified Time Points. FEV1 was the volume of air exhaled from the lungs in the first second of a forced expiration as measured by spirometer. Baseline value was defined as valid and last non-missing value obtained within 28 days prior to participant receiving first study medication. EOT visit was performed within 3 days after the participant's last dose of study drug. […] Analysis was performed on mITT population. Here, ‘number analyzed’=participants with available data for each specified category. Here, ‘0’ in the number analyzed field signifies that none of the participants were available for the analysis at the specified time points.
Change From Baseline in Percent Predicted Forced Vital Capacity (FVC) at Each Specified Time Points. FVC was the total amount of air (in liters) exhaled from the lungs during the lung function test measured by spirometer which assessed the change in lung function related to the disease status. Baseline value was defined as valid and last non-missing value obtained within 28 days prior to participant receiving first study medication. EOT visit was performed within 3 days after the participant's last dose of study drug. […] Analysis was performed on mITT population. Here, ‘number analyzed’=participants with available data for each specified category. Here, ‘0’ in the number analyzed field signifies that none of the participants were available for the analysis at the specified time points.
Change From Baseline in Percent Predicted Hemoglobin (HGB) Corrected Diffusing Capacity of Lung for Carbon Monoxide (DLco) at Each Specified Time Points. DLco is a measurement of the ability of the lungs to transfer gases from the air to the blood. Change from baseline in diffusing capacity of the lung for carbon monoxide (percent predicted hemoglobin level corrected) was reported for this measure. Baseline value was defined as valid and last non-missing value obtained within 28 days prior to participant receiving first study medication. EOT visit was performed within 3 days after the participant's last dose of study drug. […] Analysis was performed on mITT population. Here, ‘number analyzed’=participants with available data for each specified category. Here, ‘0’ in the number analyzed field signifies that none of the participants were available for the analysis at the specified time points.
Change From Baseline in Percent Predicted Total Lung Capacity (TLC) at Each Specified Time Points. TLC is the volume of air in the lungs upon the maximum effort of inspiration. Baseline value was defined as valid and last non-missing value obtained within 28 days prior to participant receiving first study medication. EOT visit was performed within 3 days after the participant's last dose of study drug. […] Analysis was performed on mITT population. Here, ‘number analyzed’=participants with available data for each specified category.

CC(C)NC(=O)COc1cccc(-c2nc(Nc3ccc4[nH]ncc4c3)c3ccccc3n2)c1 [Belumosudil, 2-{3-[4-(1H-indazol-5-ylamino)-2-quinazolinyl]phenoxy}-N-(propan-2-yl) acetamide]
Change From Baseline in Percent Predicted Residual Volume (RV), Mean (Standard Deviation) (Cohort 1: 200 mg QD, Cycle 3, Day 1, n=14): 0.2 (22.2) percent predicted RV | Change From Baseline in Percent Predicted Residual Volume (RV), Mean (Standard Deviation) (Cohort 1: 200 mg QD, Cycle 5, Day 1, n=13): 5.2 (24.5) percent predicted RV | Change From Baseline in Percent Predicted Residual Volume (RV), Mean (Standard Deviation) (Cohort 1: 200 mg QD, Cycle 7, Day 1, n=11): 4.9 (29.1) percent predicted RV | Change From Baseline in Percent Predicted Residual Volume (RV), Mean (Standard Deviation) (Cohort 1: 200 mg QD, Cycle 9, Day 1, n=9): 6.4 (27.4) percent predicted RV | Change From Baseline in Percent Predicted Residual Volume (RV), Mean (Standard Deviation) (Cohort 1: 200 mg QD, Cycle 11, Day 1, n=7): 22.1 (29.6) percent predicted RV | Change From Baseline in Percent Predicted Residual Volume (RV), Mean (Standard Deviation) (Cohort 1: 200 mg QD, Cycle 12, Day 1, n=1): −28.0 (—) percent predicted RV | Change From Baseline in Percent Predicted Residual Volume (RV), Mean (Standard Deviation) (Cohort 1: 200 mg QD, Cycle 13, Day 1, n=7): 20.3 (19.9) percent predicted RV | Change From Baseline in Percent Predicted Residual Volume (RV), Mean (Standard Deviation) (Cohort 1: 200 mg QD, Cycle 14, Day 1, n=1): 78.0 (—) percent predicted RV | Change From Baseline in Percent Predicted Residual Volume (RV), Mean (Standard Deviation) (Cohort 1: 200 mg QD, Cycle 15, Day 1, n=6): 20.3 (27.4) percent predicted RV | Change From Baseline in Percent Predicted Residual Volume (RV), Mean (Standard Deviation) (Cohort 1: 200 mg QD, Cycle 16, Day 1, n=1): 0.0 (—) percent predicted RV | Change From Baseline in Percent Predicted Residual Volume (RV), Mean (Standard Deviation) (Cohort 1: 200 mg QD, Cycle 17, Day 1, n=5): 13.6 (27.8) percent predicted RV | Change From Baseline in Percent Predicted Residual Volume (RV), Mean (Standard Deviation) (Cohort 1: 200 mg QD, Cycle 19, Day 1, n=5): 5.4 (28.7) percent predicted RV | Change From Baseline in Percent Predicted Residual Volume (RV), Mean (Standard Deviation) (Cohort 1: 200 mg QD, Cycle 21, Day 1, n=3): 8.3 (10.0) percent predicted RV | Change From Baseline in Percent Predicted Residual Volume (RV), Mean (Standard Deviation) (Cohort 1: 200 mg QD, Cycle 23, Day 1, n=3): 0.3 (5.1) percent predicted RV | Change From Baseline in Percent Predicted Residual Volume (RV), Mean (Standard Deviation) (Cohort 1: 200 mg QD, Cycle 24, Day 1, n=1): −4.0 (—) percent predicted RV | Change From Baseline in Percent Predicted Residual Volume (RV), Mean (Standard Deviation) (Cohort 1: 200 mg QD, Cycle 25, Day 1, n=2): 1.0 (9.9) percent predicted RV | Change From Baseline in Percent Predicted Residual Volume (RV), Mean (Standard Deviation) (Cohort 1: 200 mg QD, Cycle 26, Day 1, n=1): −3.0 (—) percent predicted RV | Change From Baseline in Percent Predicted Residual Volume (RV), Mean (Standard Deviation) (Cohort 1: 200 mg QD, Cycle 27, Day 1, n=2): 19.5 (41.7) percent predicted RV | Change From Baseline in Percent Predicted Residual Volume (RV), Mean (Standard Deviation) (Cohort 1: 200 mg QD, Cycle 29, Day 1, n=2): −13.0 (42.4) percent predicted RV | Change From Baseline in Percent Predicted Residual Volume (RV), Mean (Standard Deviation) (Cohort 1: 200 mg QD, Cycle 37, Day 1, n=1): −54.0 (—) percent predicted RV | Change From Baseline in Percent Predicted Residual Volume (RV), Mean (Standard Deviation) (Cohort 1: 200 mg QD, Cycle 38, Day 1, n=1): 8.0 (—) percent predicted RV | Change From Baseline in Percent Predicted Residual Volume (RV), Mean (Standard Deviation) (Cohort 1: 200 mg QD, Cycle 39, Day 1, n=2): 43.0 (89.1) percent predicted RV | Change From Baseline in Percent Predicted Residual Volume (RV), Mean (Standard Deviation) (Cohort 1: 200 mg QD, Cycle 40, Day 1, n=1): −1.0 (—) percent predicted RV | Change From Baseline in Percent Predicted Residual Volume (RV), Mean (Standard Deviation) (Cohort 1: 200 mg QD, Cycle 41, Day 1, n=1): 80.0 (—) percent predicted RV | Change From Baseline in Percent Predicted Residual Volume (RV), Mean (Standard Deviation) (Cohort 1: 200 mg QD, Cycle 43, Day 1, n=1): 58.0 (—) percent predicted RV | Change From Baseline in Percent Predicted Residual Volume (RV), Mean (Standard Deviation) (Cohort 1: 200 mg QD, Cycle 47, Day 1, n=1): 42.0 (—) percent predicted RV | Change From Baseline in Percent Predicted Residual Volume (RV), Mean (Standard Deviation) (Cohort 1: 200 mg QD, Cycle 48, Day 1, n=1): −50.0 (—) percent predicted RV | Change From Baseline in Percent Predicted Residual Volume (RV), Mean (Standard Deviation) (Cohort 1: 200 mg QD, Cycle 49, Day 1, n=1): −14.0 (—) percent predicted RV | Change From Baseline in Percent Predicted Residual Volume (RV), Mean (Standard Deviation) (Cohort 1: 200 mg QD, Cycle 51, Day 1, n=1): 22.0 (—) percent predicted RV | Change From Baseline in Percent Predicted Residual Volume (RV), Mean (Standard Deviation) (Cohort 1: 200 mg QD, Cycle 52, Day 1, n=1): −4.0 (—) percent predicted RV | Change From Baseline in Percent Predicted Residual Volume (RV), Mean (Standard Deviation) (Cohort 1: 200 mg QD, Cycle 53, Day 1, n=1): 22.0 (—) percent predicted RV | Change From Baseline in Percent Predicted Residual Volume (RV), Mean (Standard Deviation) (Cohort 1: 200 mg QD, Cycle 54, Day 1, n=1): 4.0 (—) percent predicted RV | Change From Baseline in Percent Predicted Residual Volume (RV), Mean (Standard Deviation) (Cohort 1: 200 mg QD, Cycle 55, Day 1, n=1): 53.0 (—) percent predicted RV | Change From Baseline in Percent Predicted Residual Volume (RV), Mean (Standard Deviation) (Cohort 1: 200 mg QD, Cycle 56, Day 1, n=1): 17.0 (—) percent predicted RV | Change From Baseline in Percent Predicted Residual Volume (RV), Mean (Standard Deviation) (Cohort 1: 200 mg QD, Cycle 57, Day 1, n=1): 18.0 (—) percent predicted RV | Change From Baseline in Percent Predicted Residual Volume (RV), Mean (Standard Deviation) (Cohort 1: 200 mg QD, Cycle 58, Day 1, n=1): 4.0 (—) percent predicted RV | Change From Baseline in Percent Predicted Residual Volume (RV), Mean (Standard Deviation) (Cohort 1: 200 mg QD, Cycle 60, Day 1, n=1): −20.0 (—) percent predicted RV | Change From Baseline in Percent Predicted Residual Volume (RV), Mean (Standard Deviation) (Cohort 1: 200 mg QD, Cycle 61, Day 1, n=1): −18.0 (—) percent predicted RV | Change From Baseline in Percent Predicted Residual Volume (RV), Mean (Standard Deviation) (Cohort 1: 200 mg QD, Cycle 62, Day 1, n=1): −8.0 (—) percent predicted RV | Change From Baseline in Percent Predicted Residual Volume (RV), Mean (Standard Deviation) (Cohort 1: 200 mg QD, Cycle 63, Day 1, n=1): 6.0 (—) percent predicted RV | Change From Baseline in Percent Predicted Residual Volume (RV), Mean (Standard Deviation) (Cohort 1: 200 mg QD, Cycle 67, Day 1, n=1): 2.0 (—) percent predicted RV | Change From Baseline in Percent Predicted Residual Volume (RV), Mean (Standard Deviation) (Cohort 1: 200 mg QD, EOT, n=11): 6.3 (24.3) percent predicted RV | Change From Baseline in Percent Predicted Residual Volume (RV), Mean (Standard Deviation) (Cohort 2: 200 mg BID, Cycle 3, Day 1, n=12): −4.6 (18.8) percent predicted RV | Change From Baseline in Percent Predicted Residual Volume (RV), Mean (Standard Deviation) (Cohort 2: 200 mg BID, Cycle 5, Day 1, n=11): −11.5 (26.9) percent predicted RV | Change From Baseline in Percent Predicted Residual Volume (RV), Mean (Standard Deviation) (Cohort 2: 200 mg BID, Cycle 7, Day 1, n=8): −9.9 (17.1) percent predicted RV | Change From Baseline in Percent Predicted Residual Volume (RV), Mean (Standard Deviation) (Cohort 2: 200 mg BID, Cycle 8, Day 1, n=1): −28.0 (—) percent predicted RV | Change From Baseline in Percent Predicted Residual Volume (RV), Mean (Standard Deviation) (Cohort 2: 200 mg BID, Cycle 9, Day 1, n=8): −19.9 (24.3) percent predicted RV | Change From Baseline in Percent Predicted Residual Volume (RV), Mean (Standard Deviation) (Cohort 2: 200 mg BID, Cycle 10, Day 1, n=2): −47.5 (0.7) percent predicted RV | Change From Baseline in Percent Predicted Residual Volume (RV), Mean (Standard Deviation) (Cohort 2: 200 mg BID, Cycle 11, Day 1, n=6): −10.5 (28.3) percent predicted RV | Change From Baseline in Percent Predicted Residual Volume (RV), Mean (Standard Deviation) (Cohort 2: 200 mg BID, Cycle 12, Day 1, n=1): −5.0 (—) percent predicted RV
